The values that follow come from patent publication US20110105389A1 (priority 2009, published 2011).

SMILES strings stand for the structures.

The target of the first assay is T1, GHS-R1a receptor (HEK293 cells expressing GHS-R1a receptor) (Homo sapiens, UniProt Q92847).
T1 construct: host or cells: HEK293
T1 sequence (Q92847 whole entry): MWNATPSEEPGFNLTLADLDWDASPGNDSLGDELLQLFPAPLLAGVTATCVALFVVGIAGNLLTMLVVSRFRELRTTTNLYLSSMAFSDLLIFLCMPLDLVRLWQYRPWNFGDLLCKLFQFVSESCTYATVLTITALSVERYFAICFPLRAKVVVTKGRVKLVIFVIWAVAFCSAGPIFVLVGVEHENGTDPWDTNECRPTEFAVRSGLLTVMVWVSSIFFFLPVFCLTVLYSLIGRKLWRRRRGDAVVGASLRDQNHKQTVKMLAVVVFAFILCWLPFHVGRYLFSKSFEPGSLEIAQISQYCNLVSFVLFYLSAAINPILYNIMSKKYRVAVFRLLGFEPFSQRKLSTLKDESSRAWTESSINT
The experiment in a line: Fluorescence functional assay (ghrelin receptor), Method B2, agonist and antagonist mode. The class given is cell-based. The note with it: functional activity as an antagonist at the ghrelin receptor, Methods B2 and B3. How it is done: • 1. ImageTrak Epi-Fluorescence system (Perkin-Elmer) • 2. MultiDrop TiterTek • 3. CO2 incubators: 5% CO2, humidified, 37° C.
• 1. Hanks' BSS without phenol red (Life Technologies) • 2. Hepes buffer • 3. Probenecid (Sigma) • 4. […] Falcon cell culture 96-well black/clear bottom plates • 6. 0.05% trypsin-EDTA • 7. Cells: HEK293 cells expressing GHS-R1a receptor (Perkin-Elmer BioSignal) were grown in DMEM (Dulbecco's Modified Eagles Medium) with 10% FBS, 1% sodium pyruvate, 1% NEAA and 400 μg/mL geneticin • 8. […] [D-Lys^3]-GHRP-6 (reference antagonist, Phoenix #031-22) • 10. Assay buffer: HBSS-20 mM Hepes containing 2.5 mM probenecid and 0.1% BSA (bovine serum albumin); pH 7.4
Stock solutions of compounds (10 mM in 100% DMSO) were provided frozen on dry ice and stored at −80° C. prior to use. […] Assay plates were then prepared by appropriate dilution in assay buffer.
Typical Final Test Concentrations (N=10) for Test Compounds (agonist):
Typical Final Test Concentrations (N=10) for Test Compounds (antagonist):
Cells were maintained in culture as indicated above. The cells were harvested at a confluency of 70-90% the day before the experiment. Growth medium was removed and the cells rinsed briefly with PBS without Ca^+2 and Mg^+2. 0.05% Trypsin was added and the plates incubated at 37° C. for 5 min to detach the cells. DMEM medium supplemented with 10% FBS was added to inactivate the trypsin and determine the cell concentration. The inoculum was adjusted to a final concentration of 200 cells/μL and dispensed at 200 μL per well into a 96-well block plate. The plates were, incubated at 37° C. overnight.
The plates were removed from the incubator and the media removed by inversion of the plates. Calcium-3 dye, 50 μL, was loaded and then incubated for 1 h at 37° C. The plate was again inverted and then 25 μL of assay buffer added. The plates were then transferred to the ImageTrak system for analysis. For agonist testing, after reading for ten (10) sec, 25 μL of 2× test compound or control was injected into the assay plate. Fluorescence was monitored for an additional 50 sec. A reading was taken every two (2) seconds for a total of 30 readings per assay point.
For antagonist testing, after reading for ten (10) sec, 12.5 μL of 3× test compound or control was injected into the assay plate and allowed to react for three (3) min.
Concentration response curves were analyzed using GraphPad Prism (GraphPad Software, San Diego, Calif.) by non-linear regression analysis (sigmoidal dose-response). EC50 values are calculated using GraphPad.
Emax values were calculated using the following formula: […]
Concentration response curves were analyzed using GraphPad Prism (GraphPad Software, San Diego, Calif.) by non-linear regression analysis (sigmoidal dose-response). IC50 values are calculated using GraphPad.
Imax values were calculated using the following formula: […]
On to `CCC(C)[C@@H]1NCCOc2ccccc2/C=C/CNC(=O)[C@@H](Cc2cccc(O)c2)NC(=O)[C@H](C(C)O)N(C)C1=O` (stereo partly shown) [Compound 1351], for which the “Antagonist Activity” value was “C (C = 10-100 nM)”. As for `CC(C)[C@@H]1NCCOc2ccccc2CC[C@@H](C)NC(=O)[C@@H](Cc2cccc(O)c2)NC(=O)[C@H](C(C)O)N(C)C1=O` (stereo partly shown) [Compound 1352], the “Antagonist Activity” value is recorded as “C (C = 10-100 nM)”. On to `CC(C)[C@@H]1NCCOc2ccccc2CC[C@@H](C)NC(=O)[C@@H](Cc2ccccc2)NC(=O)[C@H](C(C)O)N(C)C1=O` (stereo partly shown) [Compound 1361], for which the “Antagonist Activity” value is “B (B = 1-10 nM)”. The same measure, in the same setting: under `CC(C)[C@@H]1NCCOc2cc(F)ccc2CCCNC(=O)[C@@H](Cc2ccccc2)NC(=O)[C@H](C(C)O)N(C)C1=O` (stereo partly shown) [Compound 1363] stands “C (C = 10-100 nM)”. Turning to `CC(C)[C@@H]1NCCOc2cc(F)ccc2CCCNC(=O)[C@@H](Cc2cccc(F)c2)NC(=O)[C@H](C(C)O)N(C)C1=O` (stereo partly shown) [Compound 1366], the “Antagonist Activity” value is reported as “B (B = 1-10 nM)”.

Take `CC(O)[C@H]1C(=O)N[C@H](Cc2ccccc2)C(=O)N[C@H](C)CCc2ccccc2OCCN[C@@H](C(C)(C)C)C(=O)N1C` (stereo partly shown) [Compound 1370]: the “Antagonist Activity” value was “C (C = 10-100 nM)”.

`CC(C)[C@@H]1NCCOc2ccc(F)cc2CC[C@@H](C)NC(=O)[C@@H](Cc2ccccc2)NC(=O)[C@H](C(C)O)N(C)C1=O` (stereo partly shown) [Compound 1380]: the “Antagonist Activity” value is reported as “B (B = 1-10 nM)”. Take `CC(C)[C@@H]1NCCOc2cccc(F)c2CC[C@@H](C)NC(=O)[C@@H](Cc2ccccc2)NC(=O)[C@H](C(C)O)N(C)C1=O` (stereo partly shown) [Compound 1381]: the “Antagonist Activity” value is “B (B = 1-10 nM)”. Still for that read-out and setting: under `CC(C)[C@@H]1NCCOc2ccccc2CC[C@@H](C)NC(=O)[C@@H](Cc2ccc(O)c(Cl)c2)NC(=O)[C@H](C(C)O)N(C)C1=O` (stereo partly shown) [Compound 1383] stands “B (B = 1-10 nM)”.

On to `CC(C)[C@@H]1NCCOc2ccccc2CC[C@@H](C)NC(=O)[C@@H](Cc2cccnc2)NC(=O)[C@H](C(C)O)N(C)C1=O` (stereo partly shown) [Compound 1384], for which the “Antagonist Activity” value is “C (C = 10-100 nM)”. For `CCC[C@@H]1NCCOc2ccccc2CC[C@@H](C)NC(=O)[C@@H](Cc2ccccc2)NC(=O)[C@H](C(C)O)N(C)C1=O` (stereo partly shown) [Compound 1394], the “Antagonist Activity” value is “D (D = 100-500 nM)”.

For another assay, the target named is T2, human ghrelin receptor (GRLN, growth hormone secretagogue receptor, hGHS-R1a) (Homo sapiens, UniProt Q92847).
T2 construct: purchased PerkinElmer BioSignal #RBHGHSM, lot#1887; host or cells: HEK-293 cells, stably transfected (membranes)
T2 sequence (Q92847 whole entry): as above
The experiment in a line: Competitive radioligand binding assay (ghrelin receptor), Method B1. To be noted: Ghrelin receptor binding activity, Method B1. The procedure:
Multiscreen Harvest plates-GF/C (Millipore, #MAHFC1H60) • 4. […] Bottom seal (Millipore, #MATAH0P00) • 7. […] Binding Buffer: 25 mM Hepes (pH 7.4), 1 mM CaCl2, 5 mM MgCl2. 2.5 mM EDTA, 0.4% BSA
Competition experiments were performed in a 300 μl filtration assay format. • 1. 220 μL of membranes diluted in binding buffer • 2. 40 μL of compound diluted in binding buffer • 3.
Compounds were provided frozen on dry ice at a stock concentration of 10 mM diluted in 100% DMSO and stored at −80° C. until the day of testing. On the test day, compounds were allowed to thaw at rt overnight and then diluted in assay buffer according to the desired test concentrations. Under these conditions, the maximal final DMSO concentration in the assay was 0.1%.
Plates were sealed with TopSeal-A, vortexed gently and incubated at rt for 30 min. The reaction was arrested by filtering samples through Multiscreen Harvest plates (pre-soaked in 0.5% polyethyleneimine) using a Tomtec Harvester, washed 9 times with 500 μL of cold 50 mM Tris-HCl (pH 7.4, 4° C.), and then plates were air-dried in a fumehood for 30 min. A bottom seal was applied to the plates prior to the addition of 25 μL of MicroScint-0 to each well. Plates were than sealed with TopSeal-A and counted for 30 sec per well on a TopCount Microplate Scintillation and Luminescence Counter (PerkinElmer) using a count delay of 60 sec. Results were expressed as counts per minute (cpm).
Data were analyzed by GraphPad Prism (GraphPad Software, San Diego, Calif.) using a variable slope non-linear regression analysis. […] Dmax values were calculated using the following formula: […]
Turning to `CCC(C)C1NCCOc2ccccc2C=CCNC(=O)C(Cc2ccc(Cl)cc2)NC(=O)C(C(C)OC(C)=O)N(C)C1=O` (stereo not shown) [Compound 1842], the half-maximal inhibitory concentration (IC50) lay within 100 to 500 nM. `CCC1CCc2ccc(C(F)(F)F)cc2OCCNC(C(C)C)C(=O)N(C)C(C(C)O)C(=O)NC(Cc2ccccc2)C(=O)N1` (stereo not shown) [Compound 1846] displayed an IC50 of 100 to 500 nM. Turning to `CCC1CCc2ccc(F)cc2OCCNC(C(C)C)C(=O)N(C)C(C(C)OC(C)=O)C(=O)NC(Cc2c[nH]c3ccccc23)C(=O)N1` (stereo not shown) [Compound 1851], the IC50 was > 500 nM. On to `CCC1CCc2ccc(F)cc2OC(C)CNC(CC)C(=O)N(C)C(C(C)O)C(=O)NC(Cc2ccccc2)C(=O)N1` (stereo not shown) [Compound 1852], for which the half-inhibitory concentration (IC50) is > 500 nM.

Regarding `CC[C@@H]1CCc2c(cccc2C(N)=O)OCCN[C@@H](C(C)C)C(=O)N(C)[C@@H](C(C)O)C(=O)N[C@H](Cc2ccccc2)C(=O)N1` (stereo partly shown) [Compound 1864], the IC50 is > 500 nM. As for `CC[C@@H]1CCc2c(NS(C)(=O)=O)cccc2OCCN[C@@H](C(C)C)C(=O)N(C)[C@@H](C(C)O)C(=O)N[C@H](Cc2ccccc2)C(=O)N1` (stereo partly shown) [Compound 1866], the IC50 was > 500 nM. Regarding `CC(O)[C@H]1C(=O)N[C@H](Cc2ccccc2)C(=O)N[C@H](C)CCc2ccc(F)cc2O[C@H](C)CN[C@@H](C2(C)CC2)C(=O)N1C` (stereo partly shown) [Compound 1869], the IC50 was 10 to 100 nM. The same measure, in the same setting: for `CC(O)[C@H]1C(=O)N[C@H](Cc2ccc(F)cc2)C(=O)N[C@H](C)CCc2ccc(F)cc2O[C@H](C)CN[C@@H](C2(C)CC2)C(=O)N1C` (stereo partly shown) [Compound 1870] the value was 10 to 100 nM; for `CC(O)[C@H]1C(=O)N[C@H](Cc2ccc(Cl)cc2)C(=O)N[C@H](C)CCc2ccc(F)cc2O[C@H](C)CN[C@@H](C2(C)CC2)C(=O)N1C` (stereo partly shown) [Compound 1871], 10 to 100 nM. Same read-out and setting: for `CC(O)[C@H]1C(=O)N[C@H](Cc2ccc3ccccc3c2)C(=O)NCCCc2cccnc2OCCN[C@@H](C2(C)CC2)C(=O)N1C` (stereo partly shown) [Compound 1880] the value was 1 to 10 nM; for `CC(C)[C@@H]1NCCOc2cc(F)ccc2CCC(CC(F)(F)F)NC(=O)[C@@H](Cc2c[nH]c3ccccc23)NC(=O)[C@H](C(C)O)N(C)C1=O` (stereo partly shown) [Compound 1885], 100 to 500 nM; for `CC[C@@H]1CCc2c(cccc2C(F)(F)F)OCCN[C@@H](C(C)C)C(=O)N(C)[C@@H](C(C)O)C(=O)N[C@H](Cc2ccccc2)C(=O)N1` (stereo partly shown) [Compound 1888], > 500 nM.

In the case of `CC[C@@H]1CCc2c(C#N)cccc2OCCN[C@@H](C(C)C)C(=O)N(C)[C@@H](C(C)O)C(=O)N[C@H](Cc2ccccc2)C(=O)N1` (stereo partly shown) [Compound 1889], the IC50 fell in the range of 100 to 500 nM. On to `CC[C@@H]1CCc2c(cccc2C(F)(F)F)OCCN[C@@H](C(C)C)C(=O)N(C)[C@@H](C(C)O)C(=O)N[C@H](Cc2c[nH]c3ccccc23)C(=O)N1` (stereo partly shown) [Compound 1891], for which the IC50 fell in the range of 100 to 500 nM. As for `CC[C@@H]1CCc2c(cccc2C(F)(F)F)OCCN[C@@H](C(C)C)C(=O)N(C)[C@@H](C(C)O)C(=O)N[C@H](Cc2ccc(F)cc2)C(=O)N1` (stereo partly shown) [Compound 1892], the IC50 was > 500 nM. Take `CC[C@@H]1CCc2c(C#N)cccc2OCCN[C@@H](C2(C)CC2)C(=O)N(C)[C@@H](C(C)O)C(=O)N[C@H](Cc2ccccc2)C(=O)N1` (stereo partly shown) [Compound 1895]: the IC50 lay within 100 to 500 nM. On the same count and under the same terms, for `CC[C@@H]1CCc2c(C#N)cccc2OCCN[C@@H](C(C)C)C(=O)N(C)[C@@H](C(C)O)C(=O)N[C@H](Cc2c[nH]c3ccccc23)C(=O)N1` (stereo partly shown) [Compound 1896] the value was 100 to 500 nM; for `CC[C@@H]1CCc2c(C#N)cccc2OCCN[C@@H](C(C)C)C(=O)N(C)[C@@H](C(C)O)C(=O)N[C@H](Cc2ccc(F)cc2)C(=O)N1` (stereo partly shown) [Compound 1897], 100 to 500 nM; for `CC(C)[C@@H]1NCCOc2ncccc2CC[C@@H](C)NC(=O)[C@@H](Cc2ccccc2)NC(=O)[C@H](C(C)O)N(C)C1=O` (stereo partly shown) [Compound 1906], 10 to 100 nM. For the compound `CC(O)[C@H]1C(=O)N[C@H](Cc2ccccc2)C(=O)N[C@H](C)CCc2cccnc2OCCN[C@@H](C2(C)CC2)C(=O)N1C` (stereo partly shown) [Compound 1907], the IC50 is 10 to 100 nM.

Regarding `CC[C@@H]1CCc2c(cccc2C(F)(F)F)OCCN[C@@H](C2(C)CC2)C(=O)N(C)[C@@H](C(C)O)C(=O)N[C@H](Cc2ccccc2)C(=O)N1` (stereo partly shown) [Compound 1912], the IC50 was > 500 nM. For the compound `CC[C@@H]1CCc2ccc(F)cc2OCCN[C@@H](C2(C)CC2)C(=O)N(C)[C@@H](C(C)O)C(=O)N[C@H](Cc2ccc(F)cc2)C(=O)N1` (stereo partly shown) [Compound 1913], the IC50 lay within 10 to 100 nM. Still for that read-out and setting: under `CC(O)C1C(=O)NC(Cc2ccccc2)C(=O)NC(CC(F)(F)F)CCc2ccc(F)cc2OCCNC(C2(C)CC2)C(=O)N1C` (stereo not shown) [Compound 1921] stands 100 to 500 nM.
